These results are taken from patent US10918610B2, “Compounds and methods of promoting myelination” (Case Western Reserve University, priority 2017, dated 2021).

Structures are written as SMILES.

One experiment relates to EpiSC-derived OPCs. As to the kind of experiment: Formation of differentiated MBP+ oligodendrocytes from OPCs in vitro (high-content imaging). Format: cell-based, mouse. An excerpt: EpiSC-derived OPCs were obtained using in vitro differentiation protocols and culture conditions described previously. To ensure uniformity throughout all in vitro screening experiments, EpiSC-derived OPCs were sorted to purity by fluorescence activated cell sorting at passage five with conjugated CD 140a-APC (eBioscience, 17-1401; 1:80) and NG2-AF488 (Millipore, AB5320A4; 1:100) antibodies. Sorted batches of OPCs were expanded and frozen down in aliquots. OPCs were thawed into growth conditions for one passage before use in further assays. Cultures were regularly tested and shown to be mycoplasma free.
EpiSC-derived OPCs were grown and expanded in poly-ornithine (PO) and laminin-coated flasks with growth medium (DMEM/F12 supplemented with N2-MAX (R&D Systems), B-27 (ThermoFisher), GlutaMax (Gibco), FGF2 ([…], R&D systems, 233-FB-025) and PDGF-AA ([…], R&D systems, 233-AA-050) before harvesting for plating. The cells were seeded onto poly-D-lysine 96-well CellCarrier plates (PerkinElmer) coated with laminin (Sigma, L2020; 15 μg/ml) using multi-channel pipet. For the experiment, 800,000 cells/mL stock in differentiation medium (DMEM/F12 supplemented with N2-MAX and B-27) was prepared and stored on ice for 2 h. […]
Plates were imaged on the Operetta High Content Imaging and Analysis system (PerkinElmer) and a set of 6 fields captured from each well resulting in an average of 1200 cells being scored per well. […] Each traced nucleus region was then expanded by 50% and cross-referenced with the […] (MBP) stain to identify oligodendrocyte nuclei, and from this the percentage of oligodendrocytes was calculated. In some experiments, the total process length of MBP+ oligodendrocytes was calculated as previously described.
OPCs were generated from the EpiSC5 cell line. […] To ensure uniformity throughout all in vitro screening experiments, EpiSC-derived OPCs were sorted to purity by fluorescence activated cell sorting at passage five with conjugated CD 140a-APC (eBioscience, 17-1401; 1:80) and NG2-AF488 (Millipore, AB5320A4; 1:100) antibodies. […]

A further experiment has as its system EBP. As to the kind of experiment: Analysis of mouse brain sterol levels in vivo. Also noted: species or system C57-BL6 mice. The following applies: mice, 10 mg/kg once daily for 3 days, versus vehicle. The method, then: Ten to twelve week old male C57BL/6 mice were injected with Cis-N-cyclohexyl-N-ethyl-3-(3-chloro-4-cyclohexylphenyl)prop-2-enylamine dissolved in sterile saline daily for three days. Mice were anaesthetized with isoflurane and perfused with phosphate buffered saline to remove blood from the brain. Brains were collected and flash frozen using liquid nitrogen. The samples were pulverized and 50-100 milligrams of tissue were collected for further processing. A modified Folch protocol was used for extraction of sterols. Briefly, samples were resuspended in a 2:1 chloroform/methanol mixture and homogenized. Cell debris was removed by centrifugation at 4000 g for 10 min. The solution was dried under air and resuspended in hexane with a cholesterol-D7 standard and dried again. Lipids were derivatized with 70 al of bis(trimethylsilyl)trifluoroacetamide; 2 μls were injected and analyzed by GC/MS as described above.
Cis-N-cyclohexyl-N-ethyl-3-(3-chloro-4-cyclohexylphenyl)prop-2-enylamine was dissolved in a vehicle solution containing 80/10/10 saline/DMSO/Kolliphor. C57-BL6 mice were injected at 10 mg/kg once daily for 3 days with either vehicle (DMSO) or Cis-N-cyclohexyl-N-ethyl-3-(3-chloro-4-cyclohexylphenyl)prop-2-enylamine (n=5). (5 mice/condition). After 3 days, mice were anesthetized with isoflurane and perfused with phosphate buffered saline to remove blood from the brain. […] Lipids were derivatized with 70 ul of bis(trimethylsilyl) trifluoroacetamide; Samples were analyzed in […] using electron impact ionization; ion fragment abundances were integrated. 2 ul was analyzed by gas chromatography/mass spectrometry using an Agilent 5973 Network Mass Selective Detector equipped with a 6890 gas chromatograph system and a HP-5MS capillary column ([…]). Samples were analyzed in full scan mode using electron impact ionization; ion fragment peaks were integrated to calculate sterol abundance, and quantitation was relative to cholesterol-d7. The following ion fragments were used to quantitate each metabolite: zymostenol (458), zymosterol (456), Desmosterol. […]

Another experiment concerns the target T1, human EBP (Homo sapiens, UniProt Q15125).
T1 construct: endogenous in cells; host or cells: human cortical spheroids derived from pluripotent stem cells
As to the kind of experiment: Zymostenol level in human cortical spheroids (on-target EBP inhibition). Format: cell-based. The following applies: 100 nM, versus DMSO.

T1 sequence (Q15125 whole entry): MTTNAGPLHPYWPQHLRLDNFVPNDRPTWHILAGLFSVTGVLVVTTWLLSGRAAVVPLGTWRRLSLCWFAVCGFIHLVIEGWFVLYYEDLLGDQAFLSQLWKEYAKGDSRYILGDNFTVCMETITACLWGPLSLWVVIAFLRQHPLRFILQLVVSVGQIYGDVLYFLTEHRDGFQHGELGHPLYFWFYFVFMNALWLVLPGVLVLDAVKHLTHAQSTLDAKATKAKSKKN

Consider `CCN(C/C=C\c1ccc(C2CCCCC2)c(Cl)c1)C1CCCCC1` [Cis-N-cyclohexyl-N-ethyl-3-(3-chloro-4-cyclohexylphenyl)prop-2-enylamine], for which the “number of differentiated MBP+ oligodendrocytes from OPCs compared with ketoconazole” value in the experiment with EpiSC-derived OPCs (63 nM, 125 nM, 250 nM and 500 nM versus ketoconazole 2.5 μM) was “at higher rates than ketoconazole”. Also, the “formation of MBP+ oligodendrocytes in culture (FIG. 1A)” value with EpiSC-derived OPCs (0.03, 0.1, 0.3 and 1 um, 40,000 cells per well, 3 days) is “enhances formation of MBP+ oligodendrocytes”. Further, the “formation of MBP+ oligodendrocytes in in vitro cultures of OPCs (FIG. 4)” value in the experiment on EpiSC-derived OPCs (wider range of concentrations (2 nM to 500 nM), 50,000 cells per well, N2B27 media, no growth factors) is given as “enhances formation of MBP+ oligodendrocytes”. For the same compound, in the experiment on EBP, the “brain levels of desmosterol” value was “decreased”, the “brain levels of zymostenol” value is “increased” and the “brain levels of zymosterol” value is listed as “increased”. The “zymostenol in human cortical spheroid cells (FIG. 6)” value at human EBP is on record as “accumulation of EBP substrate zymostenol”.
